Reference: patent US20130295026A1, “FAST DISINTEGRATING COMPOSITIONS COMPRISING NABILONE AND RANDOMLY METHYLATED BETA CYCLODEXTRIN” (priority 2010, published 2013)

Legend:
[1] = Amount of Nabilone solubilized by cyclodextrin solutions, determined by extraction of the drug from lyophilized complexes (HPLC); conditions: for Increase of Nabilone solubility compared to water: water <0.5 μg/ml
Description: For the preparation of solubility isotherms, a surplus of Nabilone was added to a dilution series of cyclodextrins in distilled water. The surplus of Nabilone was approximately 130% of the maximum amount of Nabilone that could be resolved theoretically in the cyclodextrin solution. For the preparation of standard curves, an accurately weighted amount of Nabilone was added to an aqueous RAMEB solution. Then, the suspensions were stirred at 600 rpm at a constant temperature (4° C.-40° C.) in the cold room or in an environmental simulation chamber for the time periods indicated. Afterwards, the samples were centrifuged at 10,000 rpm and filtrated to remove undissolved particles prior to freeze-drying or HPLC analysis.
The filtrated solutions of the Nabilone—cyclodextrin complexes were frozen as a thin film on the inner side of round bottom glass container in a methanol—dry ice bath. Lyophilization was performed for 20 h using a Heto Power Dry LL3000 instrument (Thermo Fisher Scientific).
Freeze-dried products were stirred with acetonitrile for 30 min to promote complex dissociation and extraction of Nabilone. Samples were centrifuged and the residue was washed again two times with acetonitrile. Combined acetonitrile supernatants were evaporated under vacuum and the residue dissolved in a defined amount of acetonitrile. After centrifugation (10,000 rpm, 5 min) the content of Nabilone was measured using HPLC and related to 1 ml of the initial reaction solution.
Many cyclodextrins and cyclodextrin derivatives are not soluble in acetonitrile, which in contrast is the optimal solvent for Nabilone, preventing analysis of the Nabilone-cyclodextrin complexes with HPLC. […] The concentrations of the cyclodextrin solutions were adapted to their solubility in water. Whenever possible, concentrations of 15%, 20%, and 30% were selected.

[2] = 25° C; cited from earlier work

Row | Compound | Amount of Nabilone solubilized by 1 ml cyclodextrin solution ([1]; 30% cyclodextrin solution) | Nabilone solubility in water ([1]; H2O, no cyclodextrin) [µg/mL] | solubility ([1]; water, thermodynamic from solid, Nabilone solubility in water, H2O, no cyclodextrin) [µg/mL] | Aqueous solubility of Nabilone [2] | Amount of Nabilone solubilized by 1 ml cyclodextrin solution ([1]; 15% cyclodextrin solution) [µg/mL] | Amount of Nabilone solubilized by 1 ml cyclodextrin solution ([1]; 20% cyclodextrin solution) [µg/mL] | Increase of Nabilone solubility compared to water ([1]; 30% cyclodextrin solution)
1 | β-CD sulfobutyl ether sodium salt [SBE-β-CD] | <1 µg/mL |  |  |  |  |  | 
2 | CCCCCCC(C)(C)c1cc(O)c2c(c1)OC(C)(C)C1CCC(=O)CC21 (stereo not drawn) [Nabilone] |  | 0.5 | < 0.5 | less than 0.5 μg/ml |  |  | 
3 | hydroxypropyl-β-Cyclodextrin [HP-β-CD] | 44.5 ± 0.8 µg/mL |  |  |  | 16.2 ± 5.4 | 32.2 ± 0.1 | 90 fold
4 | randomly methylated β-Cyclodextrin [RAMEB] | 4,460±180 μg/ml |  |  |  | 2620 ± 70 | 3330 ± 390 | up to 9.000 fold
